Assay results as given in the supplement of paper PMC13380429.

Legend:
Conditions in all cases: 72 h
Calu-3 [1] = assay: drug sensitivity score (DSS) for viability; higher = more toxic; extreme values may be limits of the assay
HepG2 [2] = assay: as above
U2OS [3] = assay: as above
Vero E6 [4] = assay: as above
Caco-2 [5] = assay: cell viability relative to DMSO; higher = less toxic
Calu-3 [6] = assay: as above
HepG2 [7] = assay: as above
U2OS [8] = assay: as above
Vero E6 [9] = assay: as above
Calu-3 [10] = assay: relative viability EC50 (midpoint between 100% and the lowest measured viability); higher = less toxic
U2OS [11] = assay: as above
Vero E6 [12] = assay: as above
Caco-2 [13] = assay: drug sensitivity score (DSS) for viability; higher = more toxic; extreme values may be limits of the assay
HepG2 [14] = assay: relative viability EC50 (midpoint between 100% and the lowest measured viability); higher = less toxic

SMILES	drug sensitivity score (Calu-3 [1])	drug sensitivity score (HepG2 [2])	drug sensitivity score (U2OS [3])	drug sensitivity score (Vero E6 [4])	cell viability (Caco-2 [5]; 1 nM) [%]	cell viability (Caco-2 [5]; 10 nM) [%]	cell viability (Caco-2 [5]; 100 nM) [%]	cell viability (Caco-2 [5]; 1000 nM) [%]	cell viability (Caco-2 [5]; 10000 nM) [%]	cell viability (Calu-3 [6]; 1 nM) [%]	cell viability (Calu-3 [6]; 10 nM) [%]	cell viability (Calu-3 [6]; 100 nM) [%]	cell viability (Calu-3 [6]; 1000 nM) [%]	cell viability (Calu-3 [6]; 10000 nM) [%]	cell viability (HepG2 [7]; 1 nM) [%]	cell viability (HepG2 [7]; 10 nM) [%]	cell viability (HepG2 [7]; 100 nM) [%]	cell viability (HepG2 [7]; 1000 nM) [%]	cell viability (HepG2 [7]; 10000 nM) [%]	cell viability (U2OS [8]; 1 nM) [%]	cell viability (U2OS [8]; 10 nM) [%]	cell viability (U2OS [8]; 100 nM) [%]	cell viability (U2OS [8]; 1000 nM) [%]	cell viability (U2OS [8]; 10000 nM) [%]	cell viability (Vero E6 [9]; 1 nM) [%]	cell viability (Vero E6 [9]; 10 nM) [%]	cell viability (Vero E6 [9]; 100 nM) [%]	cell viability (Vero E6 [9]; 1000 nM) [%]	cell viability (Vero E6 [9]; 10000 nM) [%]	relative viability EC50 (Calu-3 [10]) [nM]	relative viability EC50 (U2OS [11]) [nM]	relative viability EC50 (Vero E6 [12]) [nM]	drug sensitivity score (Caco-2 [13])	relative viability EC50 (HepG2 [14]) [nM]
COc1ccc(C(=O)N2CCCC2=O)cc1 [aniracetam]	0	0	0	0																														
CCN1CCN(C(=O)Cc2ccc(Nc3ncc(F)c(Nc4ccc(C(=O)Nc5ccccc5Cl)cc4)n3)cc2)CC1 [aurora-a-inhibitor-i]	0.7	2.7	5	0.4	101	93.4	95.5	98	74.9	101	103	109	94.8	84.5	91.2	90.7	89.6	93.9	64.8	100	99.8	99.2	99.1	12	97	106	99.6	93.4	86.8	> 10000	3090	> 10000	1.2	
Cn1cnc2c(F)c(Nc3ccc(Br)cc3F)c(C(=O)NOCCO)cc21 [binimetinib]	14.1	23.5	4.1	11.5	94	87.3	77.2	73	65.6	94.7	77.5	66.4	59.9	37.2	96	83.6	38	23.7	20.8	97.9	91.4	92	93.4	43.9	97.2	92.4	72.6	56.5	51.2	78	2200		8.1	32.3
COc1cc(N2CCC(N3CCN(C)CC3)CC2)ccc1Nc1ncc(Cl)c(Nc2ccccc2P(C)(C)=O)n1 [brigatinib]	5.3	4.8	1.9	1.4	94.9	97	92.8	94	73	105	102	106	89.5	35.3	98.1	92.8	105	81.7	55	97.2	99.5	97.4	98.4	64.8	98.7	102	101	94.5	78.5	1920		> 10000	1.8	
